Earlier results on two molecules are cited in patent US20100143470A1, “CONTROLLED RELEASE PHARMACEUTICAL COMPOSITION CONTAINING THIAZIDES AND ANGIOTENSIN-II-RECEPTOR BLOCKERS” (HANALL PHARMACEUTICAL COMPANY, LTD, priority 2006, published 2010).

For data set [1] the following is noted: orally administered for hypertension therapy.

As to `NS(=O)(=O)c1cc2c(cc1Cl)NCNS2(=O)=O` [Hydrochlorothiazide, 6-chloro-3,4-dihydro-2H-1,2,4-benzothiadiazine-7-sulfonamide-1,1-dioxide], the blood half-time (in vivo) is 5.6 to 14.8 h. Besides, the “diuretic effect is sustained” value in data set [1] was 6 to 12 h.

Take `CCCCc1nc(Cl)c(CO)n1Cc1ccc(-c2ccccc2-c2nn[nH]n2)cc1` [losartan]: the “time to reach the highest blood concentration” value (after absorption from the small intestine) is at most 1 h. Besides, the blood elimination rate (in vivo) is 600 mL/min.
